# Laboratory results taken from patent US5258383A, “DC-89 derivatives” (priority 1991, dated 1993).
# How the values were obtained:
# ddY-strain male mice = experiment: Acute Toxicity Test; assay type: in vivo; conditions: intravenous; mortality observed for 14 days
# Protocol: A test compound was intravenously administered to ddY-strain male mice each weighing 20±1 g. MLD (the minimum lethal dose) was determined by observing the mortality for 14 days after the administration.
# Sarcoma 180 tumor = experiment: Therapeutic Effect against Sarcoma 180 Tumor; assay type: in vivo, male ddY-strain mice; conditions: intravenous, single administration one day after implantation, determined seven days after implantation
# Protocol: Five male ddY-strain mice each weighing 18 to 20 g were used for each group as test animals, and 5×10^5 Sarcoma 180 tumor cells were implanted subcutaneously into the animals at the axilla. One day after the implantation, 0.2 ml of physiological saline containing Compound (I) at the concentration indicated in Table 2 was intravenously administered to each mouse. T/C [T: average tumor volume (mm^3) of the group treated with the test compound, C: average tumor volume (mm^3) of the control group which received an intravenous administration of 0.2 ml of physiological saline]was determined seven days after the implant
# HeLaS3 cells = experiment: Growth Inhibitory Effect against HeLaS3 Cells; assay type: cell-based; conditions: Homo sapiens, HeLa S3; 72 hours, Neutral Red staining
# Protocol: HeLaS3 cells were suspended in a medium comprising MEM medium, 10% fetal calf serum and 2 mM glutamine (hereinafter referred to as medium A) to a concentration of 3×10^4 cells/ml. The cell suspension thus prepared was put into wells of a 96-well microtiter plate in an amount of 0.1 ml per well. After incubation at 37° C. for 20 hours in a CO2 incubator, Compound (I) appropriately diluted with medium A was added to each well in an amount of 0.05 ml.
# The cells were further cultured at 37° C. for 72 hours in the CO2 -incubator and the culture supernatant was removed. After the residue was washed once with phosphate buffer saline (PBS), a medium comprising medium A and 0.02% Neutral Red was added in an amount of 0.1 ml per well. Then, the cells were cultured at 37° C. for one hour in the CO2 -incubator, whereby the cells were stained. After removal of the culture supernatant, the residue was washed once with physiological saline. The pigment was extracted with 0.001N hydrochloric acid/30% ethanol and the absorbance of the extract was measured at 550 nm using a microplate reader. The concentration of the test compound at which the growth of the cells is inhibited by 50% (IC50) was calculated by comparing the absorbance of untreated cells with those of the cells treated with the test compound at known concentrations.
# melanoma B-16 = conditions: against melanoma B-16; cited from earlier work
# various bacteria = conditions: against various bacteria / a variety of bacteria; cited from earlier work
SMILES,"Acute Toxicity (MLD), minimum lethal dose (ddY-strain male mice) [mg/kg]",antitumor activity (melanoma B-16),antibacterial activity (various bacteria),further results
COC(=O)c1c(C)[nH]c2c(OC(=O)N3CCCC3)cc3c(c12)C(CBr)CN3C(=O)/C=C/c1ccc(OC)cc1 (stereo not shown) [Compound 5],> 8.0,,,
COC(=O)c1c(C)[nH]c2c(OC(=O)N3CCN(CC(=O)NC(C)C)CC3)cc3c(c12)C(CBr)CN3C(=O)/C=C/c1ccc(OC)cc1 (stereo not shown) [Compound 11],> 8.0,,,T/C (average tumor volume treated / control) (Sarcoma 180 tumor; 8.0 mg/kg): 0.12
COC(=O)c1c(C)[nH]c2c(OC(=O)N3CCCCC3)cc3c(c12)C(CBr)CN3C(=O)/C=C/c1ccc(OC)cc1 (stereo not shown) [Compound 4],> 8.0,,,IC50 (HeLaS3 cells): < 0.24 nM
COC(=O)c1c(C)[nH]c2c(OC(=O)N3CCC(N4CCCCC4)CC3)cc3c(c12)C(CBr)CN3C(=O)/C=C/c1ccc(OC)cc1 (stereo not shown) [Compound 9],4.0,,,T/C (average tumor volume treated / control) (Sarcoma 180 tumor; 4.0 mg/kg): 0.17
COC(=O)C1(C)Nc2c(O)cc3c(c2C1=O)C(CBr)CN3C(=O)c1cc2cc(OC)c(OC)c(OC)c2[nH]1 (stereo not shown) [DC-89B2],,show an antitumor activity against melanoma B-16,exhibit an antibacterial activity against various bacteria,
COC(=O)C1(C)NC2=C(C1=O)C13CC1CN(C(=O)c1cc4cc(OC)c(OC)c(OC)c4[nH]1)C3=CC2=O (stereo not shown) [DC-88A],,exhibit an anti-tumor activity against melanoma B-16,show an antibacterial activity against a variety of bacteria,
COC(=O)c1c(C)[nH]c2c(OC(=O)N3CCN(C)CC3)cc3c(c12)C(CBr)CN3C(=O)/C=C/c1ccc(OC)cc1 (stereo not shown) [Compound 7],8.0,,,T/C (average tumor volume treated / control) (Sarcoma 180 tumor; 4.0 mg/kg): 0.20
COC(=O)C1(C)Nc2c(O)cc3c(c2C1=O)CC(Br)CN3C(=O)c1cc2cc(OC)c(OC)c(OC)c2[nH]1 (stereo not shown) [DC-89B1],,show an antitumor activity against melanoma B-16,exhibit an antibacterial activity against various bacteria,
COC(=O)c1cc2c([nH]1)C(=O)C=C1N(C(=O)c3cc4cc(OC)c(OC)c(OC)c4[nH]3)CC3CC123 (stereo not shown) [DC113],,exhibit an anti-tumor activity against melanoma B-16,show an antibacterial activity against a variety of bacteria,
COC(=O)C1(C)Nc2c(O)cc3c(c2C1=O)CC(Cl)CN3C(=O)c1cc2cc(OC)c(OC)c(OC)c2[nH]1 (stereo not shown) [DC-89Al],,show an antitumor activity against melanoma B-16,exhibit an antibacterial activity against various bacteria,
COC(=O)c1c(C)[nH]c2c1C13CC1CN(C(=O)/C=C/c1ccc(OC)cc1)C3=CC2=O (stereo not shown) [Compound 2],2.0,,,IC50 (HeLaS3 cells): 0.18 nM
COC(=O)c1c(C)[nH]c2c(OC(=O)Nc3ccccc3)cc3c(c12)C(CBr)CN3C(=O)/C=C/c1ccc(OC)cc1 (stereo not shown) [Compound 12],2.0,,,T/C (average tumor volume treated / control) (Sarcoma 180 tumor; 2.0 mg/kg): 0.25
COC(=O)c1c(C)[nH]c2c(OC(=O)N(C)C)cc3c(c12)C(CBr)CN3C(=O)/C=C/c1ccc(OC)cc1 (stereo not shown) [Compound 3],> 8.0,,,T/C (average tumor volume treated / control) (Sarcoma 180 tumor; 8.0 mg/kg): 0.027; IC50 (HeLaS3 cells): 11 nM
COC(=O)C1(C)Nc2c(O)cc3c(c2C1=O)C(CCl)CN3C(=O)c1cc2cc(OC)c(OC)c(OC)c2[nH]1 (stereo not shown) [DC-89A2],,show an antitumor activity against melanoma B-16,exhibit an antibacterial activity against various bacteria,
